Assay results taken from patent US6756209B1, “7-Alkoxycoumarins as CYP2C9 substrates and activity assay” (SmithKline Beecham p.l.c., priority 1998, dated 2004).

COc1ccc2c(C(F)(F)F)c(CC(=O)O)c(=O)oc2c1
melting point: 198.5 to 200 °C
